From patent US20250049785A1, “METHODS FOR THE TREATMENT OF GLIOBLASTOMA THAT MINIMIZE RADIATION DAMAGE IN SUSCEPTIBLE PATIENTS” (Rhode Island Hospital, priority 2021, published 2025)

Columns and labels:
[1] = system: IDH-1 wild-type glioblastoma; assay: Case presentation: elderly glioblastoma patient treated with involved-field radiotherapy and concomitant daily TMZ; assay type: in vivo, human
From the text: A right-handed person had developed confusion, word-finding difficulty and slurred speech. These symptoms included making phone calls to their spouse and asking their non-sensible questions. They lost their words intermittently and forgot names of their family members on a number of occasions. They recounted old stories as if they were perseverating and answered questions in the affirmative without actually hearing the question. Their mood also became more irritable. Their past medical history was notable for a skull fracture after fall from horseback riding when they were a teenager. The patient had undergone a neurocognitive evaluation from a memory disorder clinic in a major academic medical center and they had been diagnosed with a non-specific memory disorder.
The patient underwent a gross total resection of the mass 4 days after the MRI. […] Immunohistochemical staining was negative for IDH-1 R132H mutation but positive for ATRX, GFAP, Olig-2 and p53.
The radiation administered consisted of standard external beam radiotherapy. The left temporal postsurgical cavity as well as the ipsilateral putamen and globus pallidus were included in the maximum 6,000 cGy isodose line (see FIG. 2). The brainstem was covered in the 3,000 cGy isodose line while the contralateral putamen and globus pallidus received up to 1,800 cGy of radiation.
They became more forgetful and developed imbalance. […]

[2] = bilateral hippocampal sparing whole brain radiation with memantine; cited from earlier work

Row | SMILES | cognitive status after treatment ([1]; after radiation (up to 6,000 cGy) and TMZ, patient with diffuse Lewy body disease at autopsy) | haematological toxicity limiting chemotherapy ([1]; person, concomitant daily TMZ with involved-field radiotherapy, only two weeks of chemotherapy administered) | neurocognitive function versus traditional fractionated whole brain radiotherapy [2]
1 | Cn1nnc2c(C(N)=O)ncn2c1=O [TMZ, temozolomide] | rapidly deteriorated | low blood counts | 
2 | CC12CC3CC(C)(C1)CC(N)(C3)C2 [memantine] |  |  | preserves neurocognitive function better
